Experimental data as given in ChEMBL document CHEMBL3098059, “Identification by in silico and in vitro screenings of small organic molecules acting as reversible inhibitors of kallikreins” (Eur J Med Chem, 2013).
The source made the active and inactive calls. No cut-off for these calls is given here.

Key:
Kallikrein-7 [1] = molecular target: T1, Kallikrein-7 (Homo sapiens, UniProt P49862); experiment: Reversible inhibition of human kallikrein7 using Suc-Leu-Leu-Val-Tyr-AMC as substrate after 15 to 60 mins by fluorescence assay
Target sequence in this assay (P49862 30-253 limits assumed): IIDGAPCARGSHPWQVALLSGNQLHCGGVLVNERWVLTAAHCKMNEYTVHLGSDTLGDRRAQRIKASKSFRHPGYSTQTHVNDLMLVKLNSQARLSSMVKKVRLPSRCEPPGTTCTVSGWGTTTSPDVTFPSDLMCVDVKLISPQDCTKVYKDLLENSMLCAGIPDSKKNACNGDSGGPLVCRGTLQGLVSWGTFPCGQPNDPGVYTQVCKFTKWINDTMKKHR

Kallikrein-7 [2] = molecular target: T1, Kallikrein-7; experiment: Inhibition of human kallikrein7 using Suc-Leu-Leu-Val-Tyr-AMC as substrate at 50 uM after 15 mins by fluorescence assay
Target sequence in this assay (P49862 30-253 limits assumed): as above

[3] = molecular target: Kallikrein-5 (Homo sapiens) (UniProt Q9Y337); experiment: Reversible inhibition of human kallikrein5 using Boc-Val-Pro-Arg-AMC as substrate after 15 to 60 mins by fluorescence assay
[4] = molecular target: T2, Kallikrein-14 (Homo sapiens) (UniProt Q9P0G3); experiment: Inhibition of human kallikrein14 using Boc-Val-Pro-Arg-AMC as substrate at 50 uM after 15 mins by fluorescence assay
T2 sequence (whole entry): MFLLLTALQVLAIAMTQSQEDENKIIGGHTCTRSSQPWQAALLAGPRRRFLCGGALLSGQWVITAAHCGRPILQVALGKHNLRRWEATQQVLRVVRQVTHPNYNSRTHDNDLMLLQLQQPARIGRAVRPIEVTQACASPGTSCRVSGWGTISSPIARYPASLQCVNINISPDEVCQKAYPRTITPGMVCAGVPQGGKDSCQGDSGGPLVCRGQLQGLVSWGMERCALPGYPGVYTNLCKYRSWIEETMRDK

[5] = molecular target: T3, Suppressor of tumorigenicity 14 protein (Homo sapiens) (UniProt Q9Y5Y6); experiment: Inhibition of matriptase (unknown origin) using Boc-Gln-Ala-Arg-AMC as substrate at 50 uM after 15 mins by fluorescence assay
T3 sequence (whole entry): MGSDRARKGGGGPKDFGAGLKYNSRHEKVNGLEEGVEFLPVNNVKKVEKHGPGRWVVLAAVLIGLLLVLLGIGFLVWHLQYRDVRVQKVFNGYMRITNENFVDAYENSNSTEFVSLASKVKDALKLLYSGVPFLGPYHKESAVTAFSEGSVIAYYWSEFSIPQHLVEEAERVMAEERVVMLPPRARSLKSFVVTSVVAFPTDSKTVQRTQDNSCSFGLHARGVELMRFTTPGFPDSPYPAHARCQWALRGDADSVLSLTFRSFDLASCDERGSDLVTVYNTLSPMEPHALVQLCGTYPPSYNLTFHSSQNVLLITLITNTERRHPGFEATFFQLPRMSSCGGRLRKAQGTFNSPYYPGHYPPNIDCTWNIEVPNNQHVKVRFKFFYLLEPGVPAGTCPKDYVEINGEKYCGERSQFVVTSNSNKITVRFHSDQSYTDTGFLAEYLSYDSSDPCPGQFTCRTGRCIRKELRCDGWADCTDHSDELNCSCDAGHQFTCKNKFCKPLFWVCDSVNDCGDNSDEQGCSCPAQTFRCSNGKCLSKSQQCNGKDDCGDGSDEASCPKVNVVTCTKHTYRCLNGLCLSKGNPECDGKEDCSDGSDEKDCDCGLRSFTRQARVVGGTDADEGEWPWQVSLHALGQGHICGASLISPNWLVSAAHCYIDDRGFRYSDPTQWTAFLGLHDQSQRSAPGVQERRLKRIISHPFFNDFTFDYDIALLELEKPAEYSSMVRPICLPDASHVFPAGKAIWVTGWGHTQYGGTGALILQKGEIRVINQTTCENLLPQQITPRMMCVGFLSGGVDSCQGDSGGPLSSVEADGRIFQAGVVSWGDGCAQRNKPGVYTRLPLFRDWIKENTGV

[6] = molecular target: T2, Kallikrein-14 (Homo sapiens); experiment: Reversible inhibition of human kallikrein14 using Boc-Val-Pro-Arg-AMC as substrate after 15 to 60 mins by fluorescence assay
[7] = molecular target: T3, Suppressor of tumorigenicity 14 protein (Homo sapiens); experiment: Reversible inhibition of matriptase (unknown origin) using Boc-Gln-Ala-Arg-AMC as substrate after 15 to 60 mins by fluorescence assay
[8] = molecular target: Kallikrein-5 (Homo sapiens) (UniProt Q9Y337); experiment: Inhibition of human kallikrein5 using Boc-Val-Pro-Arg-AMC as substrate at 50 uM after 15 mins by fluorescence assay
[9] = molecular target: T4, Suppressor of tumorigenicity 14 protein (Homo sapiens, UniProt Q9Y5Y6); experiment: Inhibition of matriptase (unknown origin) using Boc-Gln-Ala-Arg-AMC as substrate after 15 mins by fluorescence assay
T4 sequence (Q9Y5Y6 whole entry): T3 sequence (whole entry)

[10] = Cytotoxicity against human keratinocytes assessed as cell viability at 10 uM after 24 to 48 hrs by neutral red assay; format: cell-based, Keratinocyte; conditions: for Activity: keratinocyte, 10 µM
Kallikrein-14 = molecular target: T5, Kallikrein-14 (Homo sapiens, UniProt Q9P0G3); experiment: Inhibition of human kallikrein14 using Boc-Val-Pro-Arg-AMC as substrate after 15 mins by fluorescence assay
T5 sequence (Q9P0G3 whole entry): T2 sequence (whole entry)

Kallikrein-5 [11] = molecular target: T6, Kallikrein-5 (Homo sapiens, UniProt Q9Y337); experiment: Inhibition of human kallikrein5 using Boc-Val-Pro-Arg-AMC as substrate after 15 mins by fluorescence assay
T6 sequence (Q9Y337 whole entry): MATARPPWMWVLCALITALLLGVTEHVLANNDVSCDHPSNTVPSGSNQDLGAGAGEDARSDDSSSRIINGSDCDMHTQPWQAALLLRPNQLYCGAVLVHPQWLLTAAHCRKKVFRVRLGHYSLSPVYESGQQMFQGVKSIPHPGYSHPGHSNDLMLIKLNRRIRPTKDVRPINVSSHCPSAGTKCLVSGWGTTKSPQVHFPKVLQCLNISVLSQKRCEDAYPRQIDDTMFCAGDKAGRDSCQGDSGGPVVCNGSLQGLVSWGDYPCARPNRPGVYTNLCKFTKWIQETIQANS

[12] = Cytotoxicity against human keratinocytes assessed as cell viability at 100 uM after 24 to 48 hrs by neutral red assay; format: cell-based; conditions: keratinocyte
Kallikrein-7 [13] = molecular target: T1, Kallikrein-7; experiment: Inhibition of human kallikrein7 using Suc-Leu-Leu-Val-Tyr-AMC as substrate after 15 mins by fluorescence assay
Target sequence in this assay (P49862 whole entry): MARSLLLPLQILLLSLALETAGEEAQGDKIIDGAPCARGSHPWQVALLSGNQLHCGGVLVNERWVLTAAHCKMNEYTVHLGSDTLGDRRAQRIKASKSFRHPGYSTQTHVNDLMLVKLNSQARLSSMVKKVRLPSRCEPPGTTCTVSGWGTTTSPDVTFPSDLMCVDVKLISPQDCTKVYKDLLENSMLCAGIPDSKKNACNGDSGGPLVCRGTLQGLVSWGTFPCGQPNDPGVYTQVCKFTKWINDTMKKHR

Kallikrein-5 [14] = molecular target: T6, Kallikrein-5; experiment: Competitive inhibition of human kallikrein5 using Boc-Val-Pro-Arg-AMC as substrate after 15 to 60 mins by Lineweaver-Burk/Eadie-Hofstee plot analysis
Kallikrein-7 [15] = molecular target: T1, Kallikrein-7; experiment: Mixed-type inhibition of human kallikrein7 using Suc-Leu-Leu-Val-Tyr-AMC as substrate assessed as enzyme-inhibitor complex after 15 to 60 mins by Lineweaver-Burk/Eadie-Hofstee plot analysis
Target sequence in this assay (P49862 whole entry): as above

Kallikrein-7 [16] = molecular target: T1, Kallikrein-7; experiment: Mixed-type inhibition of human kallikrein7 using Suc-Leu-Leu-Val-Tyr-AMC as substrate assessed as enzyme-substrate-inhibitor complex after 15 to 60 mins by Lineweaver-Burk/Eadie-Hofstee plot analysis
Target sequence in this assay (P49862 whole entry): as above

[17] = Cytotoxicity against human keratinocytes assessed as cell viability at 1 uM after 24 to 48 hrs by neutral red assay; format: cell-based; conditions: keratinocyte
Kallikrein-7 [18] = molecular target: T1, Kallikrein-7; experiment: Ratio of Ki for mixed-type inhibition of human kallikrein7 assessed as enzyme-substrate-inhibitor complex to Ki for mixed-type inhibition of human kallikrein7 assessed as enzyme-inhibitor complex
Target sequence in this assay (P49862 30-253 limits assumed): as the sequence (P49862 30-253 limits assumed) above

[19] = molecular target: Kallikrein-5 (Homo sapiens) (UniProt Q9Y337); experiment: Competitive inhibition of human kallikrein5 using Boc-Val-Pro-Arg-AMC as substrate at 50 uM after 15 to 60 mins by Lineweaver-Burk/Eadie-Hofstee plot analysis

SMILES | inhibition (Kallikrein-7 [1]) | inhibition (Kallikrein-7 [2]) | inhibition [3] | inhibition [4] | inhibition [5] | inhibition [6] | inhibition [7] | inhibition [8] | IC50 [9] | IC50 (Kallikrein-14) | IC50 (Kallikrein-5 [11]) | IC50 (Kallikrein-7 [13]) | Ki (Kallikrein-5 [14]) | Ki (Kallikrein-7 [15]) | Activity [10] | Ki (Kallikrein-7 [16]) | Activity [17] | Ratio Ki (Kallikrein-7 [18]) | also measured
COc1cc(/C=C(/C#N)c2nc3ccccc3[nH]2)ccc1OCc1ccccc1 | Active | < 30% | Active | < 30% | < 30% | Active | Active | < 30% |  |  |  |  |  |  |  |  |  |  | 
COc1ccc(/C=C/C(=O)c2ccc(O)cc2)cc1COc1ccc(Cl)cc1 | Active | < 30% | Active |  |  | Active | Active | < 30% | 138 µM | 122 µM |  |  |  |  |  |  |  |  | viability at 10 µM ([10]; keratinocytes, read-out: Activity): 30%
COc1cc(/C=C(/C#N)c2nc3ccccc3[nH]2)ccc1OCC(=O)N1CCOCC1 | Active |  | Active |  |  | Active | Active |  | 128 µM | 108 µM | 125 µM | 83 µM | 121 µM | 55 µM | Non-toxic | 131 µM | Non-toxic | 2 | Activity [12]: Non-toxic
CCOc1cccc(NC(=O)/C(C#N)=C\c2ccc(O)c(OC)c2)c1 | Active | < 30% | Active | < 30% | < 30% | Active | Active | < 30% |  |  |  |  |  |  |  |  |  |  | 
CNC(=O)c1ccc(Nc2nnc(-c3ccc(O)cc3)c3ccccc23)cc1 | Active |  | Active |  | < 30% | Active | Active | < 30% |  | 96 µM |  | 66 µM |  | 50 µM | Non-toxic | 166 µM | Non-toxic | 2 | inhibition [19]: < 30%
CCOc1cccc(NC(=O)/C(C#N)=C\c2ccc(OCC(=O)O)c(OC)c2)c1 | Active |  | Active |  |  | Active | Active | < 30% | 75 µM | 87 µM |  | 113 µM |  | 95 µM | Non-toxic | 140 µM | Non-toxic | 2 | inhibition [19]: < 30%
O=c1c2ccccc2nc(CSc2ccccn2)n1-c1cccc(C(F)(F)F)c1 | Active | < 30% | Active | < 30% | < 30% | Active | Active | < 30% |  |  |  |  |  |  |  |  |  |  | 
COc1ccc(/C=C2/SC(=O)N(CNc3cc(F)ccc3C)C2=O)cc1OC | Active |  | Active |  |  | Active | Active |  | 103 µM | 112 µM | 117 µM | 106 µM | 95 µM | 83 µM | Non-toxic | 166 µM | Non-toxic | 2 | 
CCOc1ccc(/C=C(/C#N)C(=O)Nc2ccc(O)cc2)cc1OC | Active | < 30% | Active | < 30% | < 30% | Active | Active | < 30% |  |  |  |  |  |  |  |  |  |  | 
COc1cc(/C=C(/C#N)C(=O)Nc2ccc(O)cc2)ccc1O | Active |  | Active |  |  | Active | Active |  | 111 µM | 106 µM | 131 µM | 107 µM | 112 µM | 70 µM |  | 129 µM |  | 2 | 
CCOc1cc(/C=C(/C#N)C(=O)Nc2ccc(O)cc2)ccc1O | Active |  | Active |  |  | Active | Active |  | 98 µM | 101 µM | 117 µM | 94 µM | 107 µM | 75 µM | Non-toxic | 152 µM | Non-toxic | 2 | 
CCOc1cccc(NC(=O)/C(C#N)=C\c2ccc(O)cc2)c1 | Active | < 30% | Active | < 30% | < 30% | Active | Active | < 30% |  |  |  |  |  |  |  |  |  |  | 
COc1ccc(NC(=O)/C(C#N)=C\c2ccc(O)c(OC)c2)cc1 | Active |  | Active |  |  | Active | Active |  | 120 µM | 99 µM | 127 µM | 90 µM | 100 µM | 72 µM |  | 164 µM |  | 2 | 
CCOc1cc(/C=C(/C#N)C(=O)Nc2ccc(O)cc2)ccc1OC | Active | < 30% | Active | < 30% | < 30% | Active | Active | < 30% |  |  |  |  |  |  |  |  |  |  | 
O=c1c2ccccc2nc(CSc2[nH]cnc3ncnc2-3)n1-c1cccc(C(F)(F)F)c1 | Active | < 30% | Active | < 30% | < 30% | Active | Active | < 30% |  |  |  |  |  |  |  |  |  |  | 
